Columns and labels:
Format in all cases: cell-based
Details in all cases: unsaturated fatty acid concentration of 200 µM, cells stimulated with known bitter agonist
[1] = target: T1, T2R03 (TAS2R03) (Homo sapiens, UniProt Q9NYW6); test: FLIPR calcium assay, block of bitter agonist response, T2R03
T1 construct: expressed in transfected cells; host or cells: cells expressing a promiscuous G protein (e.g., G16g44)
T1 sequence (Q9NYW6 1-316): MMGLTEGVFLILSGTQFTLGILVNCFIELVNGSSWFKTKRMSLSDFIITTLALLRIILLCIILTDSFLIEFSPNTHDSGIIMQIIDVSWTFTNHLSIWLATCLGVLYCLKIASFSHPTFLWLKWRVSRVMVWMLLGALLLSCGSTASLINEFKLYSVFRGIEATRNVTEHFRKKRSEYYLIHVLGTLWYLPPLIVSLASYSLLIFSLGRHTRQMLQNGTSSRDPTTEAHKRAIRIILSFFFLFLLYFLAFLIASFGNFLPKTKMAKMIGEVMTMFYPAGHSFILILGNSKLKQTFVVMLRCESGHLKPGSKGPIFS
Procedure: (§1) Cells expressing a promiscuous […] (e.g., G16g44) were transfected with vectors encoding 18 functional bitter receptor cDNAs, with one receptor per transfection. The cells were transfected directly in 384-well format high-density plates and incubated for 28 hours. Later, cells were loaded with the Ca-specific dye Fluo4-AM. After an incubation of 60 minutes, excess dye is washed off, and cells are stimulated with a known bitter agonist for each receptor and various unsaturated fatty acids. Changes in intracellular fluorescence are recorded using a FLIPR instrument. Bitter antagonists and corresponding receptors are identified based on percentage inhibition of agonist's activity on a given receptor.
(§2) The above protocol was carried out using 16 different unsaturated fatty acids. A particular T2R receptor was identified as being antagonized by a particular unsaturated fatty acid if it triggered a >25% block of agonist's cellular response at 200 μM concentration of unsaturated fatty acid. […] Table 2 indicates the sixteen (16) compounds tested by their compound number from Table 1 above. The 18 bitter taste receptors screened are the human bitter taste receptors we named. […]

[2] = target: T2, T2R04 (TAS2R04) (Homo sapiens, UniProt Q9NYW5); test: FLIPR calcium assay, block of bitter agonist response, T2R04
T2 construct: expressed in transfected cells; host or cells: cells expressing a promiscuous G protein (e.g., G16g44)
T2 sequence (Q9NYW5 1-299): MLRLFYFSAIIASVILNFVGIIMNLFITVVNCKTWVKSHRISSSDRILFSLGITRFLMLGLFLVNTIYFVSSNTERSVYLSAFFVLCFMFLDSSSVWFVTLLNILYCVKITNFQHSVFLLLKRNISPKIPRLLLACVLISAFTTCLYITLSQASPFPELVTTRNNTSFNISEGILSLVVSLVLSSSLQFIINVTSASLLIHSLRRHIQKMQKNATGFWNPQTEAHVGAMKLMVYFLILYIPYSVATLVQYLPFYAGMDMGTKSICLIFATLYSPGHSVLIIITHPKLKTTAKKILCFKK
Procedure: as §1, §2

[3] = target: T3, T2R13 (TAS2R13) (Homo sapiens, UniProt Q9NYV9); test: FLIPR calcium assay, block of bitter agonist response, T2R13
T3 construct: expressed in transfected cells; host or cells: cells expressing a promiscuous G protein (e.g., G16g44)
T3 sequence (Q9NYV9 1-303): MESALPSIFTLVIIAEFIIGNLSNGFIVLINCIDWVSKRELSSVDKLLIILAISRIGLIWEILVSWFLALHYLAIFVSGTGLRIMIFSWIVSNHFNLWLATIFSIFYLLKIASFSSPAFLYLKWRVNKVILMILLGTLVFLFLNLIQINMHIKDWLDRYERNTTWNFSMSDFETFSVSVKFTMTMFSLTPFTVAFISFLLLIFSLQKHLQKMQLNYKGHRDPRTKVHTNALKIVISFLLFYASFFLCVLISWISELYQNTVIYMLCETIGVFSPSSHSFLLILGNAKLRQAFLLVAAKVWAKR
Procedure: as §1, §2

[4] = target: T4, T2R16 (TAS2R16) (Homo sapiens, UniProt Q9NYV7); test: FLIPR calcium assay, block of bitter agonist response, T2R16
T4 construct: expressed in transfected cells; host or cells: cells expressing a promiscuous G protein (e.g., G16g44)
T4 sequence (Q9NYV7 1-291): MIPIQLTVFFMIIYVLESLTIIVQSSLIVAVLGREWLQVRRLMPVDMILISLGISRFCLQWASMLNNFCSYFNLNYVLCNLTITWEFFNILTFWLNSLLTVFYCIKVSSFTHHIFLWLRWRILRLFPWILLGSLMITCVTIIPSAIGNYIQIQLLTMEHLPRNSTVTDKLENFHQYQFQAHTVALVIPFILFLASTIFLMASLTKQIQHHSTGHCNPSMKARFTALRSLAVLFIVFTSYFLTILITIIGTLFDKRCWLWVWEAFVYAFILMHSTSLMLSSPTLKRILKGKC
Procedure: as §1, §2

[5] = target: T5, T2R61 (TAS2R43) (Homo sapiens, UniProt P59537); test: FLIPR calcium assay, block of bitter agonist response, T2R61
T5 construct: expressed in transfected cells; host or cells: cells expressing a promiscuous G protein (e.g., G16g44)
T5 sequence (P59537 1-309): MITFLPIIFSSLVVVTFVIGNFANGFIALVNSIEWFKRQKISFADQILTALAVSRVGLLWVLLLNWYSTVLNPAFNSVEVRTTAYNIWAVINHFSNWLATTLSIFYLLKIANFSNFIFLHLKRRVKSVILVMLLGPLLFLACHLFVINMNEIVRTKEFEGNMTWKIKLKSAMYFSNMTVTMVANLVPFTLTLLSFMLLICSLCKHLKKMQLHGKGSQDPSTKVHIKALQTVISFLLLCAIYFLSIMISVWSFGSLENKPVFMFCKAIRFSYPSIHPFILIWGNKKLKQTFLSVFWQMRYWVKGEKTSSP
Procedure: as §1, §2

[6] = target: T6, T2R63 (TA2R20) (Homo sapiens, UniProt P59543); test: FLIPR calcium assay, block of bitter agonist response, T2R63
T6 construct: expressed in transfected cells; host or cells: cells expressing a promiscuous G protein (e.g., G16g44)
T6 sequence (P59543 1-309): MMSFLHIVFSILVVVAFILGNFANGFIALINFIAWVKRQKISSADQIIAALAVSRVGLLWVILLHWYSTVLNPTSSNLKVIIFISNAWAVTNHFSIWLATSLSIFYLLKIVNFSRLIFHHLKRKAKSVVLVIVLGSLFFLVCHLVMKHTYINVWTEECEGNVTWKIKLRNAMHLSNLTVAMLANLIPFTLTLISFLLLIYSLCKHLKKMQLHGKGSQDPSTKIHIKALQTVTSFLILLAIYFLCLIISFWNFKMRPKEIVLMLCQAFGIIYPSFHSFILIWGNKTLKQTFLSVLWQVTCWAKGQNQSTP
Procedure: as §1, §2

[7] = target: T7, T2R67 (TAS2R50) (Homo sapiens, UniProt P59544); test: FLIPR calcium assay, block of bitter agonist response, T2R67
T7 construct: expressed in transfected cells; host or cells: cells expressing a promiscuous G protein (e.g., G16g44)
T7 sequence (P59544 1-299): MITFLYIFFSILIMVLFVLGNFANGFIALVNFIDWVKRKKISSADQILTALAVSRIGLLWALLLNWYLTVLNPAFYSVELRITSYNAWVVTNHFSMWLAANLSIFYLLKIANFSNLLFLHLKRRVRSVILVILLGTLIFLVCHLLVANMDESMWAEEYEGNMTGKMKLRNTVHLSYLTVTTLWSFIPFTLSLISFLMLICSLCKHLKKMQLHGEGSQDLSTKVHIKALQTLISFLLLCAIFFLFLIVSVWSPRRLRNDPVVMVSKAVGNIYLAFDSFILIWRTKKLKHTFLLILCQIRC
Procedure: as §1, §2

[8] = target: T8, T2R71 (TAS2R41) (Homo sapiens, UniProt P59536); test: FLIPR calcium assay, block of bitter agonist response, T2R71
T8 construct: expressed in transfected cells; host or cells: cells expressing a promiscuous G protein (e.g., G16g44)
T8 sequence (P59536 1-307): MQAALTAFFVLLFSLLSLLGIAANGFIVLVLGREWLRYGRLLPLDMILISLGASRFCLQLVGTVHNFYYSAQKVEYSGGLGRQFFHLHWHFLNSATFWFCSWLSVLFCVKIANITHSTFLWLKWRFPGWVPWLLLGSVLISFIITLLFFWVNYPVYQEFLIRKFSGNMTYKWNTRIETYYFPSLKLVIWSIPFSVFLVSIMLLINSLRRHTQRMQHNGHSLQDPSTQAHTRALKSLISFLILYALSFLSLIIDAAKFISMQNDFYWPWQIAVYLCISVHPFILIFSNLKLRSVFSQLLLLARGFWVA
Procedure: as §1, §2

percentage block of cellular response over baseline, 03 [1]: >30%
percentage block of cellular response over baseline, 04 [2]: >99%
percentage block of cellular response over baseline, 13 [3]: >30%
percentage block of cellular response over baseline, 16 [4]: >25%
percentage block of cellular response over baseline, 61 [5]: >85%
percentage block of cellular response over baseline, 63 [6]: 30%
percentage block of cellular response over baseline, 67 [7]: 30%
percentage block of cellular response over baseline, 71 [8]: >30%
Structure (SMILES): CCCCC/C=C/C(=O)O [Compound 103]
